Assay results reported in patent publication US9187472B2 (AbbVie Inc., priority 2012, dated 2015).

Tests used:
[1] = target: NAMPT (human, recombinant, C-terminally His-tagged) (Homo sapiens, UniProt P43490); experiment: Time-Resolved Fluorescence Resonance Energy Transfer (TR-FRET) Binding Assay of NAMPT; settings: without substrates; 6.8 nM NAMPT, 200 nM probe, 3 hours equilibration
How it was run: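 Compounds, diluted in half-log steps, are mixed with enzyme (6.8 nM), fluorescent probe (200 nM) and Tb-anti-His antibody (1 nM) in pH 7.5 HEPES buffer containing 10 mM MgCl2 and 1 mM DTT. Plates equilibrate 3 h at room temperature; normalized FRET ratios are fitted by four-parameter logistic regression for IC50.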

[2] = test system: PC3 cells; experiment: NAMPT Cell Proliferation Assay; format: cell-based; settings: Homo sapiens, PC-3, 120 h, 5 days incubation, cell viability by Cell Titer Glo
How it was run: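 PC3 cells were plated at 500 cells/well in RPMI with 10% heat-inactivated FBS, left to attach overnight, then given compounds in 10-fold dilutions from 10 μM to 1×10^−5 μM. After 5 days at 37° C and 5% CO2, viability was read by luminescence and IC50s came from sigmoidal fits of percent inhibition.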

[3] = target: NAMPT (Homo sapiens, UniProt P43490); experiment: TR-FRET Binding Assay of NAMPT with PRPP; settings: with 200 μM PRPP and 2.5 mM ATP; 2 nM NAMPT, 2 nM probe, 16 hours equilibration
NAMPT, sequence (P43490 whole entry): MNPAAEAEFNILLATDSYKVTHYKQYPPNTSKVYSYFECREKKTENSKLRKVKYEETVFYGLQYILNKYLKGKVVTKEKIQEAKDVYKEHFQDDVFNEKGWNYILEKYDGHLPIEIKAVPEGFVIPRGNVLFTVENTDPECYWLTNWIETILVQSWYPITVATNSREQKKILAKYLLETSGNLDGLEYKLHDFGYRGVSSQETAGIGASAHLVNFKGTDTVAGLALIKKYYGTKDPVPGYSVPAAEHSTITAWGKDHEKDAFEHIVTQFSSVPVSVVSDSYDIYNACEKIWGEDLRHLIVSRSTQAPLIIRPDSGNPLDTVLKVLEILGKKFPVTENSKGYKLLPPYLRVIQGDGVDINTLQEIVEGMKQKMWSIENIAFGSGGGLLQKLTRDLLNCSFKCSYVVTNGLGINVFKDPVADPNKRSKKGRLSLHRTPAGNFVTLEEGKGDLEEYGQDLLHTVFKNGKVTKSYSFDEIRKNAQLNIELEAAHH
How it was run: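 Compounds were mixed with 2 nM His-tagged NAMPT, 2 nM probe, 1 nM terbium anti-His antibody, 200 μM PRPP and 2.5 mM ATP in assay buffer with 2% DMSO, then left 16 hours to permit possible enzymatic processing of compounds before time-resolved FRET was measured.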

NAMPT (human, recombinant, C-terminally His-tagged), sequence (P43490 whole entry): as above

| IC50 [1] [nM] | IC50 [2] [nM] | IC50 [3] [nM] | Compound |
| --- | --- | --- | --- |
| 1220 | > 10000 | 0.263 | O=C(NCc1ccn2ccnc2c1)c1ccc(Oc2ccccc2)cc1 [Example 489, N-(imidazo[1,2-a]pyridin-7-ylmethyl)-4-phenoxybenzamide] |
| 753 | 89.9 | 0.267 | CC(C)C(=O)N1CC(c2ccc(C(=O)NCc3ccn4ccnc4c3)cc2)C1 [Example 490, N-(imidazo[1,2-a]pyridin-7-ylmethyl)-4-[1-(2-methylpropanoyl)azetidin-3-yl]benzamide] |
| > 10000 | 7830 | 1.9 | CC(C)(C)OC(=O)N1CCC(c2ccc(C(=O)Nc3ccc4ncc(Cl)n4c3)cc2)CC1 [Example 491, tert-butyl 4-{4-[(3-chloroimidazo[1,2-a]pyridin-6-yl)carbamoyl]phenyl}piperidine-1-carboxylate] |
| > 10000 | 1270 | 0.863 | CC(C)C(=O)N1CC[C@@H](Oc2ccc(C(=O)NCc3ccn4ccnc4c3)cc2)C1 [Example 492, N-(imidazo[1,2-a]pyridin-7-ylmethyl)-4-{[(3R)-1-(2-methylpropanoyl)pyrrolidin-3-yl]oxy}benzamide] |
| 1290 | 486 | 0.455 | O=C(NCc1ccn2ccnc2c1)c1ccc(O[C@@H]2CCN(C(=O)c3ccccc3)C2)cc1 [Example 493, 4-{[(3R)-1-benzoylpyrrolidin-3-yl]oxy}-N-(imidazo[1,2-a]pyridin-7-ylmethyl)benzamide] |
| 7560 | 1220 | 0.712 | O=C(NCc1ccn2ccnc2c1)c1ccc(O[C@@H]2CCN(C(=O)[C@H]3CCOC3)C2)cc1 [Example 494, N-(imidazo[1,2-a]pyridin-7-ylmethyl)-4-({(3R)-1-[(3S)-tetrahydrofuran-3-ylcarbonyl]pyrrolidin-3-yl}oxy)benzamide] |
| 1470 | 127 | 0.399 | CC[C@H](C)C(=O)N1CC[C@@H](Oc2ccc(C(=O)NCc3ccn4ccnc4c3)cc2)C1 [Example 495, N-(imidazo[1,2-a]pyridin-7-ylmethyl)-4-({(3R)-1-[(25)-2-methylbutanoyl]pyrrolidin-3-yl}oxy)benzamide] |
| 199 | 7140 | 1.14 | O=C(NCc1ccn2ccnc2c1)Nc1ccc(Oc2ccccc2)cc1 [Example 496, 1-(imidazo[1,2-a]pyridin-7-ylmethyl)-3-(4-phenoxyphenyl)urea] |
| 24.2 | 742 | 2.86 | CC(C)Cn1cc(-c2ccc(C(=O)NCc3ccn4ncnc4c3)s2)cn1 [Example 497, 5-[1-(2-methylpropyl)-1H-pyrazol-4-yl]-N-([1,2,4]triazolo[1,5-a]pyridin-7-ylmethyl)thiophene-2-carboxamide] |
| 309 | 17.9 | 0.169 | O=C(NCc1ccn2ccnc2c1)c1ccc(C2CCN(C(=O)c3ccccn3)CC2)cc1 [Example 498, N-(imidazo[1,2-a]pyridin-7-ylmethyl)-4-[1-(pyridin-2-ylcarbonyl)piperidin-4-yl]benzamide] |
| 113 | 2.19 | 0.38 | CC(C)(C)CC(=O)N1CCC(c2ccc(C(=O)NCc3ccn4ccnc4c3)cc2)CC1 [Example 499, 4-[1-(3,3-dimethylbutanoyl)piperidin-4-yl]-N-(imidazo[1,2-a]pyridin-7-ylmethyl)benzamide] |
| 181 | 21.7 | 0.169 | Cc1ccc(C(=O)N2CCC(c3ccc(C(=O)NCc4ccn5ccnc5c4)cc3)CC2)cc1 [Example 500, N-(imidazo[1,2-a]pyridin-7-ylmethyl)-4-[1-(4-methylbenzoyl)piperidin-4-yl]benzamide] |
| 104 | 5.96 | 0.483 | CCC(C)(C)C(=O)N1CCC(c2ccc(C(=O)NCc3ccn4ccnc4c3)cc2)CC1 [Example 501, 4-[1-(2,2-dimethylbutanoyl)piperidin-4-yl]-N-(imidazo[1,2-a]pyridin-7-ylmethyl)benzamide] |
| 169 | 16.5 | 0.385 | O=C(NCc1ccn2ccnc2c1)c1ccc(C2CCN(C(=O)C3CCCCC3)CC2)cc1 [Example 502, 4-[1-(cyclohexylcarbonyl)piperidin-4-yl]-N-(imidazo[1,2-a]pyridin-7-ylmethyl)benzamide] |
| 53.2 | 4.21 | 0.277 | O=C(NCc1ccn2ccnc2c1)c1ccc(C2CCN(C(=O)c3cccs3)CC2)cc1 [Example 503, N-(imidazo[1,2-a]pyridin-7-ylmethyl)-4-[1-(thiophen-2-ylcarbonyl)piperidin-4-yl]benzamide] |
| 185 | 15.4 | 0.361 | O=C(NCc1ccn2ccnc2c1)c1ccc(C2CCN(C(=O)CC(F)(F)F)CC2)cc1 [Example 504, N-(imidazo[1,2-a]pyridin-7-ylmethyl)-4-[1-(3,3,3-trifluoropropanoyl)piperidin-4-yl]benzamide] |
| 253 | 30.5 | 0.355 | CCCC(=O)N1CCC(c2ccc(C(=O)NCc3ccn4ccnc4c3)cc2)CC1 [Example 505, 4-(1-butanoylpiperidin-4-yl)-N-(imidazo[1,2-a]pyridin-7-ylmethyl)benzamide] |
| 245 | 18 | 0.407 | O=C(NCc1ccn2ccnc2c1)c1ccc(C2CCN(C(=O)c3ccc(F)cc3F)CC2)cc1 [Example 506, 4-[1-(2,4-difluorobenzoyl)piperidin-4-yl]-N-(imidazo[1,2-a]pyridin-7-ylmethyl)benzamide] |
| 121 | 3.2 | 0.359 | Cc1ccccc1C(=O)N1CCC(c2ccc(C(=O)NCc3ccn4ccnc4c3)cc2)CC1 [Example 507, N-(imidazo[1,2-a]pyridin-7-ylmethyl)-4-[1-(2-methylbenzoyl)piperidin-4-yl]benzamide] |
| 257 | 28.6 | 0.481 | O=C(NCc1ccn2ccnc2c1)c1ccc(C2CCN(C(=O)c3ccc(F)cc3)CC2)cc1 [Example 508, 4-[1-(4-fluorobenzoyl)piperidin-4-yl]-N-(imidazo[1,2-a]pyridin-7-ylmethyl)benzamide] |
| 163 | 7.47 | 0.384 | CC(C)(C)C(=O)N1CCC(c2ccc(C(=O)NCc3ccn4ccnc4c3)cc2)CC1 [Example 509, 4-[1-(2,2-dimethylpropanoyl)piperidin-4-yl]-N-(imidazo[1,2-a]pyridin-7-ylmethyl)benzamide] |
| 142 | 12.1 | 0.284 | CC/C=C(\C)C(=O)N1CCC(c2ccc(C(=O)NCc3ccn4ccnc4c3)cc2)CC1 [Example 510, N-(imidazo[1,2-a]pyridin-7-ylmethyl)-4-{1-[(2E)-2-methylpent-2-enoyl]piperidin-4-yl}benzamide] |
| 65.3 | 2.78 | 0.286 | Cn1nccc1C(=O)N1CCC(c2ccc(C(=O)NCc3ccn4ccnc4c3)cc2)CC1 [Example 511, N-(imidazo[1,2-a]pyridin-7-ylmethyl)-4-{1-[(1-methyl-1H-pyrazol-5-yl)carbonyl]piperidin-4-yl}benzamide] |
| 631 | 17.9 | 0.209 | CC1(C(=O)N2CCC(c3ccc(C(=O)NCc4ccn5ccnc5c4)cc3)CC2)COC1 [Example 512, N-(imidazo[1,2-a]pyridin-7-ylmethyl)-4-{1-[(3-methyloxetan-3-yl)carbonyl]piperidin-4-yl}benzamide] |
| 23.9 | 1.18 | 0.188 | O=C(NCc1ccn2ccnc2c1)c1ccc(C2CCN(C(=O)c3ccccc3F)CC2)cc1 [Example 513, 4-[1-(2-fluorobenzoyl)piperidin-4-yl]-N-(imidazo[1,2-a]pyridin-7-ylmethyl)benzamide] |
| 368 | 30.8 | 0.249 | N#CC1(C(=O)N2CCC(c3ccc(C(=O)NCc4ccn5ccnc5c4)cc3)CC2)CC1 [Example 514, 4-{1-[(1-cyanocyclopropyl)carbonyl]piperidin-4-yl}-N-(imidazo[1,2-a]pyridin-7-ylmethyl)benzamide] |
| 180 | 15.8 | 0.268 | O=C(NCc1ccn2ccnc2c1)c1ccc(C2CCN(C(=O)C3CCCC3)CC2)cc1 [Example 515, 4-[1-(cyclopentylcarbonyl)piperidin-4-yl]-N-(imidazo[1,2-a]pyridin-7-ylmethyl)benzamide] |
| 117 | 21.3 | 0.266 | O=C(NCc1ccn2ccnc2c1)c1ccc(C2CCN(C(=O)c3cccc(F)c3)CC2)cc1 [Example 516, 4-[1-(3-fluorobenzoyl)piperidin-4-yl]-N-(imidazo[1,2-a]pyridin-7-ylmethyl)benzamide] |
| 330 | 72.2 | 0.264 | Cn1cc(C(=O)N2CCC(c3ccc(C(=O)NCc4ccn5ccnc5c4)cc3)CC2)cn1 [Example 517, N-(imidazo[1,2-a]pyridin-7-ylmethyl)-4-{1-[(1-methyl-1H-pyrazol-4-yl)carbonyl]piperidin-4-yl}benzamide] |
